A value given as a limit tells only on which side of the number the result lay.

We go through 92 compounds from PubChem BioAssay AID1508612.

This data set can be described thus: passive permeability, PAMPA, ADME assay (AID 1508612). The settings on record: pH 7.4, 30.0 min, 50.0 µM.

In the case of `CC(=O)c1c(C)[nH]c(C(=O)Nc2ccc(Cl)cc2)c1C`, the Papp amounted to 364 ×10⁻⁶ cm/s.

On to `O=S(=O)(Nc1ccc(C2CCNCC2)cc1)c1ccc(NCc2cccc(Cl)c2O)cc1`, for which the Papp turned out to be 3.22 ×10⁻⁶ cm/s.

In the case of `O=C(C1CCN(c2nc(-c3ccc(Br)cc3)cs2)CC1)N1CCOCC1`, the Papp is 236 ×10⁻⁶ cm/s.

The compound `NC(=O)C1CCN(c2nc(-c3ccccc3C(F)(F)F)cs2)CC1` yielded a Papp of 544 ×10⁻⁶ cm/s.

As for `Cc1cc(SCc2sc(-c3ccc(C(F)(F)F)c(F)c3)nc2C)ccc1OCC(=O)O`, the Papp came to 417 ×10⁻⁶ cm/s.

As for `CN(C(=O)COC(=O)c1csc(NCc2ccccc2)n1)c1ccccc1`, the Papp is above 1000 ×10⁻⁶ cm/s.

As for `NC(=O)C1CCN(c2nc(-c3cc4ccccc4o3)cs2)CC1`, the Papp is 66.2 ×10⁻⁶ cm/s.

In turn, `COc1ccccc1N1CCN(C2CCCCC2NS(=O)(=O)c2ccccc2)CC1` (configuration not stated) had a Papp above 1000 ×10⁻⁶ cm/s.

Take `O=c1cc(-c2ccccc2)oc2cc(O)cc(O)c12`: the Papp was found to be 452 ×10⁻⁶ cm/s.

On to `NCC(=O)Nc1ccc(Cl)cc1C(=O)c1ccc[nH]1`, for which the Papp was above 1000 ×10⁻⁶ cm/s.

Turning to `CC(=O)N1CCN(c2nc(-c3ccc(Br)cc3)cs2)CC1`, the Papp was found to be 995 ×10⁻⁶ cm/s.

In turn, `COc1ccc2[nH]c3c(c2c1)CCNC31CCN(S(=O)(=O)c2c(C)noc2C)CC1` displayed a Papp of 79 ×10⁻⁶ cm/s.

`Cc1cc(C)nc(NC(=S)N2CCN(c3ccc(Cl)cc3[N+](=O)[O-])CC2)c1` registered a Papp above 1000 ×10⁻⁶ cm/s.

In turn, `NC(=O)C1CCN(c2nnc(-c3ccc(Br)cc3)s2)CC1` registered a Papp of 525 ×10⁻⁶ cm/s.

Take `O=C1Nc2ccccc2/C1=C\c1cc(F)c(O)c(F)c1`: the Papp is 26.9 ×10⁻⁶ cm/s.

`COc1nccc(-c2nc(Nc3ccc(F)c(F)c3)c3ccccc3n2)c1OC` gave a Papp above 1000 ×10⁻⁶ cm/s.

As for `COc1ccc(NC(=O)c2c(C)cccc2C)cc1[S+](=O)([O-])N1CCCCC1`, the Papp was 548 ×10⁻⁶ cm/s.

In the case of `CCOc1ccc(CCNC(=O)c2ccc(C(=O)c3ccccc3)cc2)cc1OCC`, the Papp is above 1000 ×10⁻⁶ cm/s.

Take `CCOC(=O)c1ccc(NC(=O)CSc2nc3c(cc2C#N)N2CCC3CC2)cc1`: the Papp was 422 ×10⁻⁶ cm/s.

As to `Cc1cnc(-c2ccccc2C(C)(C)C)nc1NCc1ccc(-n2ccnn2)cc1`, the Papp is above 1000 ×10⁻⁶ cm/s.

On to `CCOC(=O)N1CCN(Cc2nc3c(c(=O)n(C)c(=O)n3C)n2Cc2ccc(F)cc2)CC1`, for which the Papp was 550 ×10⁻⁶ cm/s.

`C[C@@]12O[C@@H](C[C@]1(O)CO)n1c3ccccc3c3c4c(c5c6ccccc6n2c5c31)CNC4=O` registered a Papp of 7.06 ×10⁻⁶ cm/s.

Consider `CCOc1ccc(/C=C/c2nc3ccccc3n2S(=O)(=O)c2ccc(Br)cc2)cc1`, for which the Papp came to 926 ×10⁻⁶ cm/s.

Take `COc1cc(C(=S)N2CCN(CCO)CC2)ccc1OCc1ccc(C)cc1`: the Papp is above 1000 ×10⁻⁶ cm/s.

Compound `Nc1nc2c(s1)C(c1ccc(F)c(F)c1)CC(=O)N2` (configuration not stated) displayed a Papp of 265 ×10⁻⁶ cm/s.

For `O=c1c(-c2cccs2)ccc2n1C[C@H]1C[C@@H]2CN(C2CCOCC2)C1`, the Papp was 460 ×10⁻⁶ cm/s.

`CN[C@@H](C)C(=O)N[C@@H]1C(=O)N(Cc2c(C)ccc3ccccc23)c2ccc(C#N)cc2N(C(C)=O)[C@H]1C` had a Papp of 551 ×10⁻⁶ cm/s.

Regarding `COc1oc(-c2cccc3ccccc23)nc1C(=O)O`, the apparent permeability coefficient (Papp) was found to be 1.44 ×10⁻⁶ cm/s.

Turning to `COc1ccc(Nc2ncc(C(=O)Nc3cccc(Cl)c3)c3ccccc23)cc1`, the Papp was 67.1 ×10⁻⁶ cm/s.

Regarding `CCNC(=O)c1noc(-c2cc(C(C)C)c(O)cc2O)c1-c1ccc(CN2CCOCC2)cc1`, the Papp worked out at 335 ×10⁻⁶ cm/s.

As for `CC(=O)Nc1ncc(S(=O)(=O)N2CCOCC2)s1`, the Papp turned out to be 37.9 ×10⁻⁶ cm/s.

In turn, `COC(=O)C1=C(C)NC(C)=C(C(=O)OCCCN2CCC(c3ccccc3)(c3ccccc3)CC2)C1c1cccc([N+](=O)[O-])c1` (configuration not stated) came in with a Papp of 34.1 ×10⁻⁶ cm/s.

Compound `COc1ccc(S(=O)(=O)N(CC(=O)Nc2ccc(C)cc2)c2ccc(C)cc2)cc1OC` showed a Papp above 1000 ×10⁻⁶ cm/s.

In turn, `Fc1cc(Nc2nc(-c3ccncc3)nc3ccccc23)ccc1-c1cncnc1` yielded a Papp of 7.26 ×10⁻⁶ cm/s.

Consider `CC(C)c1ccc(OCc2nc3c(n2Cc2ccccc2)C(=O)N(CC2CCOCC2)CCN3)cc1`, for which the Papp is above 1000 ×10⁻⁶ cm/s.

In turn, `Cc1ccc(S(=O)(=O)Nc2cc(Br)ccc2C(=O)Nc2nc(-c3ccccc3)cs2)cc1` gave a Papp of 7.71 ×10⁻⁶ cm/s.

`CC(=O)c1c(C)[nH]c(C(=O)N(C)C)c1C` displayed an apparent permeability (Papp) of 57.4 ×10⁻⁶ cm/s.

Consider `O=C1CCCC2=C1C(c1ncccc1Br)N=C(Nc1nc3ccccc3o1)N2` (configuration not stated), for which the Papp is 371 ×10⁻⁶ cm/s.

`CC(=O)c1c(C)[nH]c(C(=O)Nc2cccc([S+](=O)([O-])Nc3ccccc3C)c2)c1C` displayed a Papp of 628 ×10⁻⁶ cm/s.

Compound `CCOC(=O)c1ccc(N2C(=O)c3n[nH]c(-c4cccs4)c3C2c2ccc(Cl)cc2Cl)cc1` (configuration not stated) had a Papp of 85.8 ×10⁻⁶ cm/s.

`O=C(c1cnc(N2CCCCC2)c2ccccc12)N1CCN(c2ccc(Cl)cc2)CC1` had a Papp above 1000 ×10⁻⁶ cm/s.

With `COC(=O)c1ccc2nc(NC3=NC(c4[nH]ncc4Cl)C4=C(CCCC4=O)N3)oc2c1` (configuration not stated), the Papp worked out at 578 ×10⁻⁶ cm/s.

The compound `COc1ccccc1Nc1cnc2ccc(-c3ccc(OC)c(OC)c3)nn12` registered a Papp of 397 ×10⁻⁶ cm/s.

For `Cc1cnc(-c2ccccc2C(C)C)nc1NCC1CN(c2cccnc2)C1`, the Papp was above 1000 ×10⁻⁶ cm/s.

For `Cc1ccc2nc(-c3cc(NC(=O)c4ccc5c(c4)OCCO5)ccc3Cl)oc2c1`, the Papp was found to be 144 ×10⁻⁶ cm/s.

In the case of `CC(C)C(=O)Nc1cccc(NC(=O)c2cc3ccccc3o2)c1`, the Papp came to 874 ×10⁻⁶ cm/s.

`CCN(c1cc(C#CCN2CCOCC2)cc(C(=O)NCc2c(C)cc(C)[nH]c2=O)c1C)C1CCC(N(C)CCOC)CC1` (configuration not stated) registered a Papp of 6.74 ×10⁻⁶ cm/s.

Compound `Nc1cccc(CNc2ccc(S(=O)(=O)Nc3nccs3)cc2)c1O` registered a Papp below 1 ×10⁻⁶ cm/s.

Turning to `CN1C(=O)CN=C(c2ccccc2Cl)c2cc(Cl)ccc21`, the Papp is above 1000 ×10⁻⁶ cm/s.

In turn, `COc1ccc2c(c1)/C(=C/c1cnc[nH]1)C(=O)N2` showed a Papp of 220 ×10⁻⁶ cm/s.

For `CO[C@@H]1/C=C\O[C@@]2(C)Oc3c(C)c(O)c4c(c3C2=O)C(=N[C@H]2CC[C@H](O)O[C@@H]2C)C=C(NC(=O)/C(C)=C\C(=O)[C@@H]2C[C@@H]2[C@@H](O)[C@H](C)[C@@H](O)[C@H](C)[C@H](OC(C)=O)[C@@H]1C)C4=O`, the Papp was 2.33 ×10⁻⁶ cm/s.

On to `COc1ccc(-c2nc3ncccc3[nH]2)cc1`, for which the Papp is 139 ×10⁻⁶ cm/s.

As for `Cc1cc(C)nc(N2CCCC(C(=O)NCCc3ccc(F)cc3)C2)n1` (configuration not stated), the Papp was determined as 62.2 ×10⁻⁶ cm/s.

In turn, `COc1ccc(CCNC(=O)Cn2c(=O)c3cccn3c3ccc(F)cc32)cc1OC` gave a Papp of 442 ×10⁻⁶ cm/s.

As to `CCOC(=O)c1ccc(-c2ccc3ncnc(NCCc4cnc[nH]4)c3c2)o1`, the Papp was above 1000 ×10⁻⁶ cm/s.

On to `COc1ccc(NC2CCCN(C(=O)CCc3ccccc3F)C2)cc1` (configuration not stated), for which the Papp came out at 923 ×10⁻⁶ cm/s.

For the compound `CN1C(=O)c2ccccc2[S@](=O)c2ccc(C(=O)NCc3ccc(Cl)cc3)cc21`, the Papp was above 1000 ×10⁻⁶ cm/s.

As to `C=CCc1cccc(CNc2ccc(S(=O)(=O)Nc3nccs3)cc2)c1O`, the apparent permeability coefficient (Papp) came to 134 ×10⁻⁶ cm/s.

In turn, `Cc1cnc(-c2ccccc2C2CC2)nc1NCc1ccc(-c2cccnc2)cc1` came in with a Papp above 1000 ×10⁻⁶ cm/s.

In turn, `Cc1cccc2nc(-c3cccnc3)c(Nc3ccc(C(C)C)cc3)n12` registered a Papp above 1000 ×10⁻⁶ cm/s.

For the compound `COc1cncc(Nc2ncc(-c3cccc(N(C)C)c3)c3c2OCC3)c1`, the Papp was below 1 ×10⁻⁶ cm/s.

Consider `O=C(c1ccc2ccccc2c1)N1CCN(c2ccc(O)cc2)CC1`, for which the Papp was determined as 527 ×10⁻⁶ cm/s.

Compound `CCOC(=O)c1ccc2c(c1)c(C(C)=O)c(C)n2-c1ccc(OC)cc1` displayed a Papp above 1000 ×10⁻⁶ cm/s.

As to `CC(=O)c1ccc(-c2csc(N3CCC(C(N)=O)CC3)n2)cc1`, the apparent permeability coefficient (Papp) is 300 ×10⁻⁶ cm/s.

`O=C(c1cnn(-c2cccc(F)c2)c1-n1cccc1)N1CCN(c2ccccc2F)CC1` registered a Papp above 1000 ×10⁻⁶ cm/s.

Compound `COc1cc2nccc(Oc3ccc(NC(=O)C4(C(=O)Nc5ccc(F)cc5)CC4)cc3)c2cc1OC` displayed a Papp of 507 ×10⁻⁶ cm/s.

In turn, `O=C1Nc2ccccc2/C1=C/c1cccc(C(=O)O)c1` showed a Papp of 1.2 ×10⁻⁶ cm/s.

On to `CCN1CCCC1CNC(=O)c1cc(S(=O)(=O)CC)c(N)cc1OC` (configuration not stated), for which the Papp was below 1 ×10⁻⁶ cm/s.

Take `COCCNc1ncnc2onc(-c3ccc(F)cc3)c12`: the Papp worked out at 458 ×10⁻⁶ cm/s.

With `Fc1ccc(N2CCCN(CC3[C@H]4CNC[C@@H]34)CC2)cc1` (some centres not stated), the Papp came out at 196 ×10⁻⁶ cm/s.

As to `Cc1ccc(-n2nc(C)c3c(-c4ccc(O)c(O)c4)c(C#N)c(N)nc32)cc1C`, the apparent permeability coefficient (Papp) turned out to be 187 ×10⁻⁶ cm/s.

For `CC(C)N(CCC(=O)c1ccc2ccccc2c1)Cc1ccccc1`, the Papp was above 1000 ×10⁻⁶ cm/s.

Take `CCc1c(C)nc2c(-c3cnn(-c4cc(CO)ccn4)c3)c[nH]n2c1=O`: the Papp was 1.62 ×10⁻⁶ cm/s.

As for `Cc1cc(NC(=S)N2CCN(c3cccc(C(F)(F)F)c3)CC2)nc2ccccc12`, the Papp was determined as 31.5 ×10⁻⁶ cm/s.

`CN(Cc1ccccc1)C(=O)c1ccc(S(=O)(=O)Nc2ccccc2)cc1` returned a Papp of 288 ×10⁻⁶ cm/s.

Turning to `CNc1ncc(-c2cccc3ccccc23)o1`, the Papp was above 1000 ×10⁻⁶ cm/s.

Regarding `C[C@@H]1C(=O)O[C@H]2[C@H]1CC[C@@]1(C)Cc3sc(NS(=O)(=O)Cc4ccccc4)nc3[C@@H](C)[C@H]21`, the Papp was above 1000 ×10⁻⁶ cm/s.

Consider `CCOc1ccc(CCNC(=O)c2cc3ccccc3n2CCN2CCOCC2)cc1OCC`, for which the Papp was above 1000 ×10⁻⁶ cm/s.

Take `Cc1ccc(-n2c(C)cc(C3=NNC(=NC4CC4)SC3)c2C)cc1C`: the Papp is above 1000 ×10⁻⁶ cm/s.

`COc1cccc(C(=O)NCCSc2c(-c3ccc(F)cc3)[nH]c3ccccc23)c1OC` returned a Papp of 37 ×10⁻⁶ cm/s.

`CC1CCc2ccc(F)cc2N1S(=O)(=O)c1cccs1` (configuration not stated) gave a Papp of 795 ×10⁻⁶ cm/s.

In turn, `Cc1c(-c2nsc(NC(=O)c3cccc(Cl)c3)n2)nnn1-c1ccccc1C(F)(F)F` gave a Papp of 706 ×10⁻⁶ cm/s.

Regarding `CS(=O)(=O)CCNCc1ccc(-c2ccc3ncnc(Nc4ccc(OCc5cccc(F)c5)c(Cl)c4)c3c2)o1`, the Papp was below 1 ×10⁻⁶ cm/s.

`COc1cc(N2CCC(N3CCN(C)CC3)CC2)ccc1Nc1ncc(Cl)c(Nc2ccccc2P(C)(C)=O)n1` showed a Papp of 266 ×10⁻⁶ cm/s.

As for `CCOC(=O)c1ccc(N2C(=O)c3n[nH]c(-c4ccco4)c3C2c2ccc(C)cc2)cc1` (configuration not stated), the Papp worked out at 6.34 ×10⁻⁶ cm/s.

`Cc1cc(NS(=O)(=O)c2ccc3c(c2)CCC(=O)N3)ccc1F`: the Papp is 412 ×10⁻⁶ cm/s.

For `O=S(=O)(Nc1nc2n(n1)C(c1ccccc1)C=C(c1ccc(Cl)cc1)N2)c1ccccc1` (configuration not stated), the Papp amounted to 9.09 ×10⁻⁶ cm/s.

Turning to `COc1cc2c(c(OC)c1OC)-c1ccc(OC)c(=O)cc1[C@@H](NC(C)=O)CC2`, the Papp was determined as 1.93 ×10⁻⁶ cm/s.

In turn, `Cc1ccnc(NC(=S)N2CCN(c3ccc(C(F)(F)F)cc3)CC2)c1` yielded a Papp of 587 ×10⁻⁶ cm/s.

On to `COc1ccccc1-c1csc(N2CCC(C(N)=O)CC2)n1`, for which the apparent permeability (Papp) was 693 ×10⁻⁶ cm/s.

In turn, `c1ccc(-c2ccc(CNc3nc(-c4ccccn4)nnc3-c3ccccc3)cc2)cc1` registered a Papp above 1000 ×10⁻⁶ cm/s.

Compound `NC1(c2ccc(NC(=O)c3ccnc(-c4cc(C(=O)O)ccn4)c3)cc2)CC1` returned a Papp of 8.31 ×10⁻⁶ cm/s.
